From ChEMBL document CHEMBL1157881, “Optimization of arylindenopyrimidines as potent adenosine A(2A)/A(1) antagonists” (Bioorg Med Chem Lett, 2010) come the findings set out here.

One may read the Ki as the equilibrium dissociation constant of an inhibitor or competing ligand from its target. Read a low Ki as higher affinity. By ED50 is commonly meant the dose at which the effect has come halfway, by size or by number of responders. The low end stands for greater potency, the high end for weaker potency. As usually defined, the Cmax is the highest concentration seen after dosing.

For one series, the target named is T1, Adenosine receptor A1 (Homo sapiens, UniProt P30542).
T1 sequence (P30542 whole entry): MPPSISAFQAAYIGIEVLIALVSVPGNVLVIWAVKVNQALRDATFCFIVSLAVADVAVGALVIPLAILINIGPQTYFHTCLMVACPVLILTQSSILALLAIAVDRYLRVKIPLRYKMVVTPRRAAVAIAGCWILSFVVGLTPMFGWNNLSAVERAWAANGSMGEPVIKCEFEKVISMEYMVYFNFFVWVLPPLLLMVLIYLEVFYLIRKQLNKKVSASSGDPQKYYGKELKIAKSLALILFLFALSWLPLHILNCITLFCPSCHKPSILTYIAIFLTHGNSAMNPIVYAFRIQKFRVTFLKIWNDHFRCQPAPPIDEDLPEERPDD
The series is described as follows: Antagonistic activity at adenosine A1 receptor. The series is classed as functional.

For a further series, the target named is Adenosine receptor A2a (Homo sapiens, UniProt P29274). Briefly: Antagonistic activity at adenosine A2A receptor. The series is classed as functional.
Chain of Adenosine receptor A2a (P29274 whole entry): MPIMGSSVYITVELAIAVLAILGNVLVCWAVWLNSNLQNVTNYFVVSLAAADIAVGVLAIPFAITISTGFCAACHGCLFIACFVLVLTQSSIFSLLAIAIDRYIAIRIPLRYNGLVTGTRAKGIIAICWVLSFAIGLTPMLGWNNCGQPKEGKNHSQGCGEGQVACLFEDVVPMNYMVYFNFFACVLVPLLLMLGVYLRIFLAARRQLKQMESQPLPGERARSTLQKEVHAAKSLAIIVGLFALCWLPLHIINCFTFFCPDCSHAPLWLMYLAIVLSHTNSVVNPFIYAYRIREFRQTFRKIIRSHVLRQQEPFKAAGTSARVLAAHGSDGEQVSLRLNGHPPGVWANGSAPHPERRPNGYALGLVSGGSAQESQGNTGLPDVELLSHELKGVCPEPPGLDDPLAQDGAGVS
The subject of series [1] is Mus musculus. The series is described as follows: Antagonist activity against haloperidol-induced catalepsy in po dosed mouse. The format is functional.
The subject of series [2] is Mus musculus. Briefly: Antagonist activity against haloperidol-induced catalepsy in mouse at 10 mg/kg, po. The format is functional, organism-based. The arrangement: dose 10 mg/kg.
The nature of series [3]: Cmax in rat brain. The series is classed as ADME, organism-based.
Series [4] has as its system Mus musculus. The series is described as follows: Antagonist activity against haloperidol-induced catalepsy in mouse at 3 mg/kg, po. The series is classed as functional, organism-based. The arrangement: dose 3 mg/kg.

The structures appear in SMILES notation. Activity calls are given as the source filed them. The rule behind the calls is not given here. Where only a bound is given, the exact number is not on record here.

Turning to `Nc1nc(-c2ccccc2)c2c(n1)-c1cc(NCCc3ccncc3)ccc1C2=O`, the Ki on Adenosine receptor A1 came to 12.7 nM; on Adenosine receptor A2a, 0.9 nM.
Turning to `CCN1CCN(c2ccc3c(c2)-c2nc(N)nc(-c4ccccc4)c2C3=O)CC1`, the figures for the Ki at Adenosine receptor A1 and on Adenosine receptor A2a were 256 nM and 11.4 nM, respectively. In addition, the ED50 with Mus musculus [1] was < 1 mg/kg.
On to `CCN(CC)CCOc1ccc2c(c1)-c1nc(N)nc(-c3ccc(F)cc3)c1C2=O`, for which the inhibitory constant (Ki) at Adenosine receptor A1 amounted to 414 nM; at Adenosine receptor A2a, 50.6 nM.
The corresponding values for `CCN(CC)CCNC(=O)c1ccc2c(c1)-c1nc(N)nc(-c3ccccc3)c1C2=O` are 45.2 nM and 13.5 nM.
The matching figures for `CC(C)N(CCOc1ccc2c(c1)-c1nc(N)nc(-c3ccc(F)cc3)c1C2=O)C(C)C`: 468 nM and 76.6 nM.
Consider `Nc1nc(-c2ccc(F)cc2)c2c(n1)-c1cc(OCCN3C4CCC3CC4)ccc1C2=O`, for which the Ki is 337 nM on Adenosine receptor A1 and 35.1 nM at Adenosine receptor A2a. The result in the series with Mus musculus [2] was inactive.
As for `Nc1nc(-c2ccccc2)c2c(n1)-c1cc(OCCN3CCCC3)ccc1C2=O`, the Ki at Adenosine receptor A1 stood at 159 nM; at Adenosine receptor A2a it was 19.3 nM. Moreover, the ED50 in the series with Mus musculus [1] was < 1 mg/kg.
`CCN(CC)CCN(C)C(=O)c1ccc2c(c1)-c1nc(N)nc(-c3ccccc3)c1C2=O`: the Ki on Adenosine receptor A1 stood at 94.7 nM; on Adenosine receptor A2a, 7.8 nM. For the same compound, the ED50 with Mus musculus [1] was < 1 mg/kg.
The matching figures for `CC(C)N1CCC(NC(=O)c2ccc3c(c2)-c2nc(N)nc(-c4ccccc4)c2C3=O)CC1`: 119 nM, 16.8 nM and 0.4 mg/kg.
On to `Nc1nc(-c2ccccc2)c2c(n1)-c1cc(OCCN3CCCCC3)ccc1C2=O`, for which the Ki at Adenosine receptor A1 worked out at 194 nM; on Adenosine receptor A2a it was 35.3 nM.
As to `CN1CCN(C(=O)c2ccc3c(c2)-c2nc(N)nc(-c4ccc(F)cc4)c2C3=O)CC1`, the Ki is 101 nM at Adenosine receptor A1 and 11.1 nM at Adenosine receptor A2a. The ED50 in the series on Mus musculus [1] was < 1 mg/kg.
For `CCN1CCN(C(=O)c2ccc3c(c2)-c2nc(N)nc(-c4ccc(F)cc4)c2C3=O)CC1`, the Ki at Adenosine receptor A1 came out at 191 nM; at Adenosine receptor A2a it was 32.1 nM.
The matching figures for `CN1CCCN(c2ccc3c(c2)-c2nc(N)nc(-c4ccccc4)c2C3=O)CC1`: 137 nM and 10 nM.
Take `CN1CCN(c2ccc3c(c2)-c2nc(N)nc(-c4ccccc4)c2C3=O)CC1`: the Ki came to 35.6 nM at Adenosine receptor A1 and 2.7 nM on Adenosine receptor A2a. Besides, in the series on Mus musculus [1], the ED50 was < 1 mg/kg.
The matching figures for `CCN(CC)CCOc1ccc2c(c1)-c1nc(N)nc(-c3ccccc3)c1C2=O`: 103 nM, 7.9 nM and < 1 mg/kg.
Consider `Nc1nc(-c2ccccc2)c2c(n1)-c1cc(CN3CCCC3)ccc1C2=O`, for which the highest level in series [3] (Cmax) was 3.6 µM.
As for `CCN1CCN(C(=O)c2ccc3c(c2)-c2nc(N)nc(-c4ccccc4)c2C3=O)CC1`, the Ki stood at 67.4 nM on Adenosine receptor A1 and 14.9 nM on Adenosine receptor A2a. Further, in the series on Mus musculus [1], the ED50 was < 1 mg/kg.
The matching figures for `CN(C)CCN(C)C(=O)c1ccc2c(c1)-c1nc(N)nc(-c3ccccc3)c1C2=O`: 208 nM, 12.4 nM and < 1 mg/kg.
In the case of `CN(C)CCN(C)c1ccc2c(c1)-c1nc(N)nc(-c3ccccc3)c1C2=O`, the Ki on Adenosine receptor A1 worked out at 57.3 nM; at Adenosine receptor A2a, 4.7 nM.
Regarding `Nc1nc(-c2ccc(F)cc2)c2c(n1)-c1cc(OCCN3CCCC3)ccc1C2=O`, the Ki stood at 600 nM on Adenosine receptor A1 and 117 nM at Adenosine receptor A2a. In the series with Mus musculus [1], this compound displayed an ED50 of 0.8 mg/kg.
Consider `CC(C)N(CCOc1ccc2c(c1)-c1nc(N)nc(-c3ccccc3)c1C2=O)C(C)C`, for which the Ki came to 187 nM at Adenosine receptor A1 and 13.7 nM at Adenosine receptor A2a. Moreover, in the series with Mus musculus [1], the ED50 is < 1 mg/kg.
The corresponding values for `CN1CCC(N(C)C(=O)c2ccc3c(c2)-c2nc(N)nc(-c4ccccc4)c2C3=O)CC1` are 258 nM, 18.6 nM and < 1 mg/kg.
Take `CC(C)N1CCN(C(=O)c2ccc3c(c2)-c2nc(N)nc(-c4ccccc4)c2C3=O)CC1`: the values for the Ki at Adenosine receptor A1 and at Adenosine receptor A2a were 84.1 nM and 20.7 nM, respectively.
`Nc1nc(-c2ccccc2)c2c(n1)-c1cc(OCCN3CCOCC3)ccc1C2=O`: on Adenosine receptor A1, the inhibition constant (Ki) amounted to 48.2 nM. Besides, the highest level in series [3] (Cmax) was 4.1 µM. Moreover, the ED50 in the series with Mus musculus [1] was < 1 mg/kg.
On to `Nc1nc(-c2ccccc2)c2c(n1)-c1cc(N3CCN(CC4CC4)CC3)ccc1C2=O`, for which the Ki was 253 nM on Adenosine receptor A1 and 23.2 nM at Adenosine receptor A2a.
The corresponding values for `CCN1CCC(N(C)c2ccc3c(c2)-c2nc(N)nc(-c4ccccc4)c2C3=O)CC1` are 16.4 nM and 4.9 nM.
The matching figures for `Nc1nc(-c2ccccc2)c2c(n1)-c1cc(C(=O)N3CCNCC3)ccc1C2=O`: 12.3 nM and 32.5 nM.
For `CCN1CCC(Nc2ccc3c(c2)-c2nc(N)nc(-c4ccccc4)c2C3=O)CC1`, the Ki turned out to be 142 nM on Adenosine receptor A1 and 12.5 nM at Adenosine receptor A2a. Besides, the outcome in the series on Mus musculus [4] was inactive.
As to `CN(C)CCOc1ccc2c(c1)-c1nc(N)nc(-c3ccccc3)c1C2=O`, the figures for the Ki at Adenosine receptor A1 and on Adenosine receptor A2a were 33.3 nM and 17.3 nM, respectively. In the series with Mus musculus [1], the ED50 is < 3 mg/kg.
As to `CN1CCN(C(=O)c2ccc3c(c2)-c2nc(N)nc(-c4ccccc4)c2C3=O)CC1`, the peak level in series [3] (Cmax) was 0.6 µM. In the series with Mus musculus [1], this compound came in with an ED50 of 0.4 mg/kg.
For the compound `Nc1nc(-c2ccc(F)cc2)c2c(n1)-c1cc(OCCN3CCOCC3)ccc1C2=O`, the results for the inhibition constant Ki at Adenosine receptor A1 and on Adenosine receptor A2a were 203 nM and 18.1 nM, respectively. Besides, the ED50 in the series on Mus musculus [1] was < 1 mg/kg.
Consider `Nc1nc(-c2ccccc2)c2c(n1)-c1cc(NCCN3CCS(=O)(=O)CC3)ccc1C2=O`, for which the figures for the Ki at Adenosine receptor A1 and at Adenosine receptor A2a were 46.7 nM and 3.1 nM, respectively. For the same compound, the result in the series with Mus musculus [4] was inactive.
In the case of `Nc1nc(-c2ccccc2)c2c(n1)-c1cc(NCCN3CCOCC3)ccc1C2=O`, the figures for the Ki at Adenosine receptor A1 and on Adenosine receptor A2a were 32.7 nM and 4.4 nM, respectively. The ED50 with Mus musculus [1] was < 1 mg/kg.
For `CN(C)CCOc1ccc2c(c1)-c1nc(N)nc(-c3ccc(F)cc3)c1C2=O`, the Ki on Adenosine receptor A1 came to 37.4 nM; on Adenosine receptor A2a, 37.3 nM.
In the case of `Nc1nc(-c2ccccc2)c2c(n1)-c1cc(C(=O)NCCN3CCOCC3)ccc1C2=O`, the Ki is 215 nM at Adenosine receptor A1 and 28.4 nM at Adenosine receptor A2a.
The corresponding values for `Nc1nc(-c2ccccc2)c2c(n1)-c1cc(N3CCOCC3)ccc1C2=O` are 32.4 nM and 2.9 nM.
The corresponding values for `Nc1nc(-c2ccccc2)c2c(n1)-c1cc(NCCc3ccccn3)ccc1C2=O` are 15.4 nM and 0.9 nM.
